The record followed here is US20240336559A1, “ANTI-FUNGALS COMPOUNDS TARGETING THE SYNTHESIS OF FUNGAL SPHINGOLIPIDS” (The Research Foundation for the State University of New York, priority 2021, published 2024).

Holding throughout (assay type): cell-based
The test system of test [1] is C. albicans. Nature of the test: Antifungal activity assay (MIC80), C. albicans. The conditions noted are these: Candida albicans; lowest concentration inhibiting 80% of growth; YNB pH 7.0, 37° C., 5% CO2, 24 to 72 h. How it is done: (§1) MICs were determined following the methods of the Clinical and Laboratory Standards Institutes (CLSI) with modifications. Yeast nitrogen base (YNB) medium without amino acid (pH 7.0, 2% glucose) buffered with (4-(2-hydroxyethyl)-1-piperazineethanesulfonic acid) (HEPES) was used for MIC studies in C. neoformans. YNB medium without ammonium sulfate, without amino acid and 1% asparagine (pH 7.0, 2% glucose) was used for MIC studies in Candida strains. RPMI medium (pH 7.0, 2% glucose) was used for MIC studies in A. fumigatus. […] The compounds were serially diluted from 32 to 0.03 μg/mL, in a 96-well plate. The inoculum was prepared as described in the CLSI protocol M27A3 guidelines. The plates were incubated at 37° C. with 5% CO2 for 24 to 72 h and the optical density was measure at 450 nm. The MICs were determined as the lowest concentration of the compound that inhibited 80% of growth compared to the control.

Test [2] has as its system C. neoformans, C. albicans, A. fumigatus. Nature of the test: Broad spectrum in vitro antifungal activity. The conditions noted are these: in words. How it is done: as §1
The test system of test [3] is C. neoformans. Put plainly: Antifungal activity assay (MIC80), C. neoformans. The conditions noted are these: Cryptococcus neoformans; lowest concentration inhibiting 80% of growth; YNB pH 7.0 HEPES, 37° C., 5% CO2, 24 to 72 h; read-out: MIC80 C. neoformans. The procedure: as §1
MICs was determined following the methods of the Clinical and Laboratory Standards Institutes (CLSI) with modifications. Yeast Nitrogen Base (YNB) medium (pH 7.0, 0.2% glucose) buffered with HEPES was used for MIC studies. […] The compound was serially diluted from 16 to 0.03 μg/ml, in a 96-well plate. The inoculum was prepared as described in the CLSI protocol M27A3 guidelines. The plates were incubated at 37° C. with 5% CO2 for 24 to 72 h and the optical density was measure at 450 nm. The MICs was determined as the lowest concentration of the compound that inhibited 80% of growth compared to the control.

Test [4] has as its system A. fumigatus. Nature of the test: Antifungal activity assay (MIC80), A. fumigatus. The settings on record: Aspergillus fumigatus; lowest concentration inhibiting 80% of growth; RPMI pH 7.0, 37° C., 5% CO2, 24 to 72 h. How it is done:
as §1

≈ marks a conversion by molar mass, not a printed value.

Turning to `C#Cc1ccc(/C=N/NC(=O)c2ccc(Br)cc2Br)c(O)c1` [SB-AF-08-27, 2,4-Dibromo-N′-(4-ethynyl-2-hydroxybenzylidene)benzohydrazide], the MIC80 came out at 0.12 µg/mL (≈ 0.284 µM) in test [1], 0.03 µg/mL (≈ 0.0711 µM) in test [3] and 0.5 µg/mL (≈ 1.18 µM) in test [4]. The “in vitro broad-spectrum antifungal activity” value in test [2] is “excellent in vitro broad-spectrum activity”.

As usually defined, the MIC80 is the lowest concentration that inhibits either 80% of growth or 80% of the strains tested, depending on the study.
